# Results: patent publication US20230417740A1, “TISSUE-MIMICKING HYDROGEL COMPOSITIONS FOR BIOFABRICATION” (Wake Forest University Health Sciences, priority 2014, published 2023)
# Test system: bioprinted liver organoids
# Assay type: cell-based
# Conditions: 20 mM NAC with 10 mM APAP, general trend of the data
structure (smiles),measurement,value
"CC(=O)N[C@@H](CS)C(=O)O [NAC, N-acetyl-L-cysteine]",rescue of liver organoids from APAP insult,can be rescued
